Experimental data: patent US20090028925A1, “Novel Phosphinic Acid-Containing Thyromimetics” (priority 2005, published 2009)
Like-named read-outs stand apart in the source and are kept apart here.

Assays:
[1] = target: T1, human thyroid hormone receptors TRβ1 (Homo sapiens, UniProt P10828); assay: Receptor binding to TRβ1 (gel filtration and scintillation proximity assay, labeled T3); settings: read-out: Ki TRβ
T1 construct: made in house; host or cells: Sf9 insect cells (baculovirus)
T1 sequence (P10828 1-461): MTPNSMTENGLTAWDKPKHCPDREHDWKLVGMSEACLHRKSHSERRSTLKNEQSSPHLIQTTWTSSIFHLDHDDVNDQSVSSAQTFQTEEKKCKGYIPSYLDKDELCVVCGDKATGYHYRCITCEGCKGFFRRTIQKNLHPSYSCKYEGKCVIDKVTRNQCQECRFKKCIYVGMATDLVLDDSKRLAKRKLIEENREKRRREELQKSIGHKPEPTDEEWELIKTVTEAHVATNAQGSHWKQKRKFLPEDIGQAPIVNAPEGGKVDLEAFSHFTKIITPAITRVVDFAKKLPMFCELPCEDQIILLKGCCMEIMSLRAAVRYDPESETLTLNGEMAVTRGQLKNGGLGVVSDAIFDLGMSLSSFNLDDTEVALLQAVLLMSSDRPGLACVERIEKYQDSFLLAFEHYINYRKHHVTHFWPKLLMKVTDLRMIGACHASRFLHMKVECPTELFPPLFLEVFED
T1 sequence (P19793 1-462 partner): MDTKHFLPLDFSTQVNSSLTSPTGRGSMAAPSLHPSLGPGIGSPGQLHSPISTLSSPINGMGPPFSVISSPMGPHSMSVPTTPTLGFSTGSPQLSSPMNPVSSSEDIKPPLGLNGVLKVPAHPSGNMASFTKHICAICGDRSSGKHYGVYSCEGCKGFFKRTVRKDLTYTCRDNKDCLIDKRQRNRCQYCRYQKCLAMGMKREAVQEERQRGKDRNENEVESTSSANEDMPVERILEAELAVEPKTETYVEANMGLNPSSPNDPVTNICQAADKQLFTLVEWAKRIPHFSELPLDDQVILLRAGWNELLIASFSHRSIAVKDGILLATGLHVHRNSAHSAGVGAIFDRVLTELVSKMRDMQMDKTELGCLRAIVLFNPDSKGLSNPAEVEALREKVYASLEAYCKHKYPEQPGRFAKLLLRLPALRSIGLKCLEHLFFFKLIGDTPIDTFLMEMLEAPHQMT
Method: (§1) Methods: Baculoviruses expressing TRα1, TRβ1 and RXRα were generated using cDNA and other reagents from Invitrogen (Carlsbad, Calif.). To produce TR/RXR heterodimer proteins, the sf9 insect cells were first grown to a density of 1-5×10^5 cells/mL. […] and RXRα baculovirus stocks were added to the cell culture with a ratio of 1 to 1 (multiplicity of infection=10). The cells were harvested three days after the infection.
(§2) Binding of compounds to either the TRα1 or TRβ1 were also performed by means of scintillation proximity assays (SPA). The SPA assay, a common method used for the quantitation of receptor-ligand equilibria, makes use of special beads coated with a scintillant and a capture molecule, copper, which binds to the histidine-tagged α or β receptor.

[2] = target: T2, human thyroid hormone receptors TRα1 (Homo sapiens, UniProt P10827); assay: Receptor binding to TRα1 (gel filtration and scintillation proximity assay, labeled T3); settings: read-out: Ki TRα
T2 construct: made in house; host or cells: Sf9 insect cells (baculovirus)
T2 sequence (P10827 1-410 isoform P10827-2): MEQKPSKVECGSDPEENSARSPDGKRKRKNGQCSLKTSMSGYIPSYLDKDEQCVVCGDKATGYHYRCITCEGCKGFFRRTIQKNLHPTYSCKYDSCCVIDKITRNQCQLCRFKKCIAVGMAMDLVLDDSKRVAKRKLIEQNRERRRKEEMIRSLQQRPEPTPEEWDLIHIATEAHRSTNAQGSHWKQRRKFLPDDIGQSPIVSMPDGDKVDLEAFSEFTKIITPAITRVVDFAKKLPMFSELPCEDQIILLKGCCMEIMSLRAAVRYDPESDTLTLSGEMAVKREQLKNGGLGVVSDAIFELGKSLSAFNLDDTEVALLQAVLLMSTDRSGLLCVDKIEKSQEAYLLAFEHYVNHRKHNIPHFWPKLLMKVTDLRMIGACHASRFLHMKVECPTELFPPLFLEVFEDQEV
T2 sequence (P19793 1-462 partner): T1 sequence (P19793 1-462 partner)
Method: as §1, §2

## O=P(O)(O)Cc1cc(Cl)c(Oc2ccc(O)c(S(=O)(=O)N[C@@H]3C[C@H]4CC[C@@H]3C4)c2)c(Cl)c1 (relative stereo) [Compound 10, 3,5-dichloro-4-[4′-hydroxy-3′-(N-exo-2-norbornylsulfonamido)phenoxy]benzylphosphonic acid]
[1]; SPA data
  Ki: > 2000 nM
[2]; SPA data
  Ki: > 2000 nM

## Cc1cc(NC(=O)P(=O)(O)O)cc(C)c1Oc1ccc(O)c(C(C)C)c1 [Compound 1, N-[3,5-dimethyl-4-(3′-iso-propyl-4′-hydroxyphenoxy)]carbamoylphosphonic acid]
[1]
  Ki: 36.1 nM
[2]
  Ki: 285 nM

## NC(Cc1cc(I)c(Oc2ccc(O)c(I)c2)c(I)c1)P(=O)(O)O (stereo not drawn) [Compound 2, 1-amino-2-[3,5-diiodo-4-(4′-hydroxy-3′-iodophenoxy)phenyl]ethylphosphonic acid]
[1]
  Ki: 271 nM
[2]
  Ki: 1420 nM

## O=P(O)(O)CCc1cc(I)c(Oc2ccc(O)c(I)c2)c(I)c1 [Compound 3, 2-[3,5-diiodo-4-(4′-hydroxy-3′-iodophenoxy)phenyl]ethylphosphonic acid]
[1]; SPA data
  Ki: 5.42 nM
[2]; SPA data
  Ki: 46 nM

## CC(C)c1cc(Oc2c(I)cc(CCP(=O)(O)O)cc2I)ccc1O [Compound 4, 2-[3,5-diiodo-4-(4′-hydroxy-3′-iso-propylphenoxy)phenyl]ethylphosphonic acid]
[1]; SPA data
  Ki: 0.99 nM
[2]; SPA data
  Ki: 14.1 nM

## CC(C)c1cc(Oc2c(I)cc(CP(=O)(O)O)cc2I)ccc1O [Compound 5, 3,5-diiodo-4-(4′-hydroxy-3′-iso-propylphenoxy)benzylphosphonic acid]
[1]
  Ki: 0.84 nM
[2]
  Ki: 1.84 nM

## COc1cc(OCP(=O)(O)O)cc(OC)c1Cc1ccc(O)c(C(C)C)c1 [Compound 7-2, [3,5-dimethoxy-4-(4′-hydroxy-3′-iso-propylbenzyl)phenoxy]methylphosphonic acid]
[1]
  Ki: 146 nM
[2]; SPA data
  Ki: > 2000 nM

## COc1ccc(Cc2c(C)cc(OCP(=O)(O)O)cc2C)cc1C(C)C [Compound 7-4, [3,5-dimethyl-4-(3′-iso-propyl-4′-methoxybenzyl)phenoxy]methylphosphonic acid]
[1]; SPA data
  Ki: > 2000 nM
[2]; SPA data
  Ki: > 2000 nM

## CC(C)c1cc(Cc2c(Cl)cc(OCP(=O)(O)O)cc2Cl)ccc1O [Compound 7-5, [3,5-dichloro-4-(4′-hydroxy-3′-iso-propylbenzyl)phenoxy]methylphosphonic acid]
[1]; SPA data
  Ki: 9.5 nM
[2]; SPA data
  Ki: 67 nM

## Cc1cc(Cc2c(C)cc(OCP(=O)(O)O)cc2C)ccc1O [Compound 7-7, [3,5-dimethyl-4-[4′-hydroxy-3′-methylbenzyl]phenoxy]methylphosphonic acid]
[1]; SPA data
  Ki: 90 nM
[2]; SPA data
  Ki: 898 nM

## CC(=O)Nc1ccc(Cc2c(C)cc(OCP(=O)(O)O)cc2C)cc1C(C)C [Compound 7-12, [4-(4′-acetylamino-3′-iso-propylbenzyl)-3,5-dimethylphenoxy]methylphosphonic acid]
[1]; SPA data
  Ki: 61 nM
[2]; SPA data
  Ki: > 2000 nM

## O=P(O)(O)Cc1cc(Cl)c(Oc2ccc(O)c(S(=O)(=O)N3CCCCC3)c2)c(Cl)c1 [Compound 9, 3,5-dichloro-4-[4′-hydroxy-3′-(N-piperidinylsulfonamido)phenoxy]benzylphosphonic acid]
[1]; SPA data
  Ki: 204 nM
[2]; SPA data
  Ki: 350 nM

## Cc1cc(OC[P@]2(=O)OCC[C@@H](c3cccc(Cl)c3)O2)cc(C)c1Cc1ccc(O)c(C(C)C)c1 [Compound 13-1-trans, (S)-2-[(3,5-dimethyl-4-(4′-hydroxy-3′-iso-propylbenzyl)phenoxy)methyl]-4-(3-chlorophenyl)-2-oxo-2λ^5-[1,3,2]-dioxaphosphonane]
[1]; SPA data
  Ki: 1320 nM
[2]; SPA data
  Ki: 1740 nM

## Cc1cc(OC[P@]2(=O)OCC[C@@H](c3cccc(Br)c3)O2)cc(C)c1Cc1ccc(O)c(C(C)C)c1 [Compound 13-2-trans, 2-[(3,5-dimethyl-4-(4′-hydroxy-3′-iso-propylbenzyl)phenoxy)methyl]-4-(3-bromophenyl)-2-oxo-2λ^5-[1,3,2]-diox aphosphonane]
[1]; SPA data
  Ki: 469 nM
[2]; SPA data
  Ki: 1350 nM

## Cc1cc(OC[P@]2(=O)OCC[C@@H](c3cccc(F)c3)O2)cc(C)c1Cc1ccc(O)c(C(C)C)c1 [Compound 13-3-trans]
[1]; SPA data
  Ki: 2460 nM
[2]; SPA data
  Ki: 2010 nM

## Cc1cc(OC[P@]2(=O)OCC[C@@H](c3cccnc3)O2)cc(C)c1Cc1ccc(O)c(C(C)C)c1 [Compound 13-4-trans, 2-[(3,5-dimethyl-4-(4′-hydroxy-3′-iso-propylbenzyl)phenoxy)methyl]-4-(pyrid-3-yl)-2-oxo-2λ^5-[1,3,2]-dioxaphosphonane]
[1]; SPA data
  Ki: 1810 nM
[2]; SPA data
  Ki: 2130 nM

## Cc1cc(OC[P@]2(=O)OCC[C@@H](c3ccncc3)O2)cc(C)c1Cc1ccc(O)c(C(C)C)c1 [Compound 13-5-trans, 2-[(3,5-dimethyl-4-(4′-hydroxy-3′-iso-propylbenzyl)phenoxy)methyl]-4-(pyrid-4-yl)-2-oxo-2λ^5-[1,3,2]-dioxaphosphonane]
[1]; SPA data
  Ki: 281 nM
[2]; SPA data
  Ki: 354 nM

## Cc1cc(OC[P@]2(=O)OCC[C@@H](c3ccc(Cl)cc3)O2)cc(C)c1Cc1ccc(O)c(C(C)C)c1 [Compound 13-6-trans, 2-[(3,5-dimethyl-4-(4′-hydroxy-3′-iso-propylbenzyl)phenoxy)methyl]-4-(4-chlorophenyl)-2-oxo-2λ^5-[1,3,2]-dioxaphosphonane]
[1]; SPA data
  Ki: 1570 nM
[2]; SPA data
  Ki: 1530 nM

## Cc1cc(OC[P@@]2(=O)OCC[C@@H](c3cc(Cl)cc(Cl)c3)O2)cc(C)c1Cc1ccc(O)c(C(C)C)c1 [Compound 13-7-cis]
[1]; SPA data
  Ki: 45100 nM
[2]; SPA data
  Ki: 49600 nM

## Cc1cc(OC[P@]2(=O)OCC[C@@H](c3cc(Cl)cc(Cl)c3)O2)cc(C)c1Cc1ccc(O)c(C(C)C)c1 [Compound 13-7-trans]
[1]; SPA data
  Ki: 3800 nM
[2]; SPA data
  Ki: 1550 nM

## CCOC(=O)[C@@H](NP(=O)(COc1cc(C)c(Cc2ccc(O)c(C(C)C)c2)c(C)c1)N[C@H](C(=O)OCC)C(C)C)C(C)C [Compound 15-3, di-N-(1-ethoxycarbonyl-2-methyl-propylamino)[3,5-dimethyl-4-(3′-iso-propyl-4′-hydroxybenzyl)phenoxy]methylphosphonamide]
[1]; SPA data
  Ki: > 2000 nM
[2]; SPA data
  Ki: > 2000 nM

## Cc1cc(CP(=O)(O)O)cc(C)c1Oc1ccc(O)c(C(C)C)c1 [Compound 19-3, [3,5-dimethyl-4-(4′-hydroxy-3′-iso-propylphenoxy)]benzylphosphonic acid]
[1]; SPA data
  Ki: 128 nM
[2]
  Ki: 1760 nM

## Cc1cc(OCP(=O)(O)O)cc(C)c1Nc1ccc(O)c(C(C)C)c1 [Compound 20, [3,5-dimethyl-4-N-(4′-hydroxy-3-iso-propylphenylamino)phenoxy]methylphosphonic acid]
[1]; SPA data
  Ki: > 2000 nM
[2]; SPA data
  Ki: > 2000 nM

## CC(C)c1cc(Oc2c(Cl)cc(C(=O)CP(=O)(O)O)cc2Cl)ccc1O [Compound 21, 2-[3,5-dichloro-4-(4′-hydroxy-3′-iso-propylphenoxy)phenyl]-2-oxoethylphosphonic acid]
[1]; SPA data
  Ki: > 180 nM
[2]; SPA data
  Ki: > 1400 nM

## Cc1cc(C(=O)NCP(=O)(O)O)cc(C)c1Oc1ccc(O)c(C(C)C)c1 [Compound 23, N-[3,5-dimethyl-4-(4′-hydroxy-3′-iso-propylphenoxy)benzamido]methyl phosphonic acid]
[1]; SPA data
  Ki: > 2000 nM
[2]; SPA data
  Ki: > 2000 nM

## COc1cc(CCP(=O)(O)O)cc(OC)c1Cc1ccc(O)c(C(C)C)c1 [Compound 24, 2-[3,5-dimethoxy-4-(4′-hydroxy-3′-isopropylbenzyl)phenyl]ethylphosphonic acid]
[1]; SPA data
  Ki: > 2000 nM
[2]; SPA data
  Ki: > 2000 nM

## CCc1cc(Cc2c(C)cc(CCP(=O)(O)O)cc2C)ccc1O [Compound 24-4, 2-[3,5-dimethyl-4-(3′-Ethyl-4′-hydroxy-benzyl)phenyl]ethylphosphonic acid]
[1]; SPA data
  Ki: 92 nM
[2]; SPA data
  Ki: > 2000 nM
